This note sets out measurements from patent US20260098053A1, “COMPOSITIONS AND METHODS FOR TREATING CNS DISORDERS” (SAGE THERAPEUTICS, INC., priority 2019, published 2026).

One assay deals with [35S]-TBPS binding, rat brain cortical membranes. Put plainly: Steroid inhibition of [35S]-TBPS binding. The note with it: Table 4, 3 nM [35S]-TBPS, in the presence of 5 mM GABA, read-out: TBPS IC50. How it is done: [35S]-t-Butylbicyclophosphorothionate (TBPS) binding assays using rat brain cortical membranes in the presence of 5 mM GABA has been described (Gee et al, J. Pharmacol. Exp. Ther. 1987, 241, 346-353; Hawkinson et al, Mol. Pharmacol. 1994, 46, 977-985; Lewin, A. H et al., Mol. Pharmacol. 1989, 35, 189-194).
Briefly, cortices are rapidly removed following decapitation of carbon dioxide-anesthetized Sprague-Dawley rats (200-250 g). The cortices are homogenized in 10 volumes of ice-cold 0.32 M sucrose using a glass/teflon homogenizer and centrifuged at 1500×g for 10 min at 4° C. The resultant supernatants are centrifuged at 10,000×g for 20 min at 4° C. to obtain the P2 pellets. The P2 pellets are resuspended in 200 mM NaCl/50 mM Na—K phosphate pH 7.4 buffer and centrifuged at 10,000×g for 10 min at 4° C. This washing procedure is repeated twice and the pellets are resuspended in 10 volumes of buffer. Aliquots ([…]) of the membrane suspensions are incubated with 3 nM [^35S]-TBPS and […] aliquots of test drug dissolved in dimethyl sulfoxide (DMSO) (final 0.5%) in the presence of 5 mM GABA. The incubation is brought to a final volume of 1.0 mL with buffer. Nonspecific binding is determined in the presence of […] and ranged from 15 to 25%. Following a 90 min incubation at room temp, the assays are terminated by filtration through glass fiber filters (Schleicher and Schuell No. 32) using a cell harvester (Brandel) and rinsed three times with ice-cold buffer. Filter bound radioactivity is measured by liquid scintillation spectrometry. Non-linear curve fitting of the overall data for each drug averaged for each concentration is done using Prism (GraphPad). […] The concentration of test compound producing 50% inhibition (IC50) of specific binding and the maximal extent of inhibition (Imax) are determined for the individual experiments with the same model used for the overall data and then the means±SEM.s of the individual experiments are calculated.
Various compounds are or can be screened to determine their potential as modulators of [^35S]-TBPS binding in vitro. These assays are or can be performed in accordance with the above
By IC50 is commonly meant the concentration needed to halve the response being measured. Regarding `CC[C@]1(O)CC[C@H]2CC[C@@H]3[C@H](CC[C@]4(C)[C@H](C(C)=O)CCC[C@@H]34)[C@H]2CC1` [Example 47, 1-((1R,4aS,4bR,6aR,9S,11aS,11bR,13aS)-9-ethyl-9-hydroxy-13a-methyloctadecahydro-1H-cyclohepta[a]phenanthren-1-yl)ethanone], the concentration for half-maximal inhibition (IC50) was over 1000 nM. In the case of `C[C@@]1(O)CCC[C@@]2(C)[C@H](CC[C@@H]3[C@@H]2CC[C@]2(C)[C@H](C(=O)Cn4cc(C#N)cn4)CCCC[C@@H]32)C1` [Example 61, 1-(2-((1R,5aS,5bR,7aR,9R,12aS,12bS,14aS)-9-hydroxy-9,12a,14a-trimethylicosahydrodicyclohepta[a,f]naphthalen-1-yl)-2-oxoethyl)-1H-pyrazole-4-carbonitrile], the IC50 fell in the range of 100 to 1000 nM. In the case of `C[C@@]1(O)CCC[C@H]2[C@H](CC[C@@H]3[C@@H]2CC[C@]2(C)[C@@H](C(=O)Cn4cc(C#N)cn4)CCC[C@@H]32)C1` [Example 10], the IC50 is under 100 nM. As for `C[C@]1(O)CC[C@H]2CC[C@@H]3[C@H](CC[C@]4(C)[C@@H](C(=O)Cn5cc(C#N)cn5)CCC[C@@H]34)[C@H]2CC1` [Example 4, 1-(2-((1S,4aS,4bR,6aR,9S,11aS,11bR,13aS)-9-hydroxy-9,13a-dimethyloctadecahydro-1H-cyclohepta[a]phenanthren-1-yl)-2-oxoethyl)-1H-pyrazole-4-carbonitrile], the IC50 was 100 to 1000 nM. `C[C@]1(O)CC[C@@H]2CC[C@@H]3[C@H](CC[C@]4(C)[C@H](C(=O)Cn5cc(C#N)cn5)CCC[C@@H]34)[C@@]2(C)CC1` [Example 45, 1-(2-((1R,4aS,4bR,6aS,9S,11aS,11bS,13aS)-9-hydroxy-9,11a,13a-trimethyloctadecahydro-1H-cyclohepta[a]phenanthren-1-yl)-2-oxoethyl)-1H-pyrazole-4-carbonitrile]: the 50% inhibitory concentration (IC50) is over 1000 nM. Turning to `CC(=O)[C@H]1CCC[C@H]2[C@@H]3CC[C@@H]4CC[C@](C)(O)CC[C@@H]4[C@H]3CC[C@]12C` [Example 1, 1-((1S,4aS,4bR,6aR,9S,11aS,11bR,13aS)-9-hydroxy-9,13a-dimethyloctadecahydro-1H-cyclohepta[a]phenanthren-1-yl)ethan-1-one], the half-inhibitory concentration (IC50) was over 1000 nM. As for `C[C@]1(O)CC[C@H]2CC[C@@H]3[C@H](CC[C@]4(C)[C@H](C(=O)Cn5cc(C#N)cn5)CCC[C@@H]34)[C@H]2CC1` [Example 3], the 50% inhibitory concentration (IC50) was over 1000 nM.

In the case of `CC[C@]12CC[C@H]3[C@@H](CC[C@@H]4CC[C@](C)(O)CC[C@@H]43)[C@@H]1CC[C@@H]2C(=O)Cn1cc(C#N)cn1` [Example 33], the IC50 is 100 to 1000 nM. For the compound `CC[C@@]1(O)CCC[C@H]2[C@H](CC[C@@H]3[C@@H]2CC[C@]2(C)[C@@H](C(C)=O)CCC[C@@H]32)C1` [Example 13, 1-((1S,4aS,4bR,6aR,8R,11aS,11bR,13aS)-8-ethyl-8-hydroxy-13a-methyloctadecahydro-1H-cyclohepta[a]phenanthren-1-yl)ethan-1-one], the IC50 was 100 to 1000 nM. The same measure, in the same setting: next, `CC[C@@]1(O)CCC[C@H]2[C@H](CC[C@@H]3[C@@H]2CC[C@]2(C)[C@H](C(C)=O)CCC[C@@H]32)C1` [Example 36, 1-((1R,4aS,4bR,6aR,8R,11aS,11bR,13aS)-8-ethyl-8-hydroxy-13a-methyloctadecahydro-1H-cyclohepta[a]phenanthren-1-yl)ethenone]: over 1000 nM; `Cc1nnn(CC(=O)[C@H]2CCCC[C@H]3[C@@H]4CC[C@@H]5C[C@](C)(O)CCC[C@]5(C)[C@H]4CC[C@]23C)n1` [Example 62, 1-((1S,5aS,5bR,7aR,9R,12aS,12bS,14aS)-9-hydroxy-9,12a,14a-trimethylicosahydrodicyclohepta[a,f]naphthalen-1-yl)-2-(5-methyl-2H-tetrazol-2-yl)ethanone]: under 100 nM; `CC[C@]12CC[C@H]3[C@@H](CC[C@@H]4C[C@](C)(O)CC[C@@H]43)[C@@H]1CCC[C@@H]2C(=O)Cn1cc(C#N)cn1` [Example 28, 1-(2-((1S,4aS,4bR,6aR,8R,10aS,10bR,12aS)-12a-ethyl-8-hydroxy-8-methyloctadecahydrochrysen-1-yl)-2-oxoethyl)-1H-pyrazole-4-carbonitrile]: under 100 nM. Still for that read-out and setting: next, `C[C@]1(O)CC[C@@H]2CC[C@@H]3[C@H](CC[C@]4(C)[C@@H](C(=O)Cn5cc(C#N)cn5)CCC[C@@H]34)[C@@]2(C)CC1` [Example 44, 1-(2-((1S,4aS,4bR,6aS,9S,11aS,11bS,13aS)-9-hydroxy-9,11a,13a-trimethyloctadecahydro-1H-cyclohepta[a]phenanthren-1-yl)-2-oxoethyl)-1H-pyrazole-4-carbonitrile]: 100 to 1000 nM; `CC[C@@]1(O)CCC[C@@]2(C)[C@H](CC[C@@H]3[C@@H]2CC[C@]2(C)[C@@H](C(C)=O)CCC[C@@H]32)C1` [Example 37, 1-((1S,4aS,4bR,6aR,8R,11aS,11bS,13aS)-8-ethyl-8-hydroxy-11a,13a-dimethyloctadecahydro-1H-cyclohepta[a]phenanthren-1-yl)ethanone]: 100 to 1000 nM; `CC[C@]12CC[C@@](C)(O)CC[C@H]1CC[C@H]1[C@@H]3CC[C@H](C(=O)Cn4cc(C#N)cn4)[C@@]3(C)CC[C@@H]12` [Example 26]: 100 to 1000 nM. As for `Cc1nnnn1CC(=O)[C@H]1CCCC[C@H]2[C@@H]3CC[C@@H]4C[C@](C)(O)CCC[C@]4(C)[C@H]3CC[C@]12C` [Example 63, 1-((1S,5aS,5bR,7aR,9R,12aS,12bS,14aS)-9-hydroxy-9,12a,14a-trimethylicosahydrodicyclohepta[a,f]naphthalen-1-yl)-2-(5-methyl-1H-tetrazol-1-yl)ethanone], the 50% inhibitory concentration (IC50) was 100 to 1000 nM.

The same assay, now with this note: Table 5, 3 nM [35S]-TBPS, in the presence of 5 mM GABA, read-out: TBPS IC50.
Regarding `Cc1nnnn1CC(=O)[C@H]1CC[C@H]2[C@@H]3CC[C@H]4C[C@](C)(O)CC[C@@H]4[C@H]3CC[C@@H]21` [Example 76, 1-((3R,5S,8R,9R,10S,13S,14S,17S)-3-hydroxy-3-methylhexadecahydro-1H-cyclopenta[a]phenanthren-17-yl)-2-(5-methyl-1H-tetrazol-1-yl)ethanone], the 50% inhibitory concentration (IC50) is over 1000 nM.

Consider `C[C@@]1(O)CC[C@H]2[C@H](CC[C@H]3[C@@H]4CC[C@H](C(=O)Cn5cc(C#N)cn5)[C@@H]4CC[C@@H]32)C1` [Example 84, 1-(2-((3R,5R,8R,9R,10S,13R,14S,17S)-3-hydroxy-3-methylhexadecahydro-1H-cyclopenta[a]phenanthren-17-yl)-2-oxoethyl)-1H-pyrazole-4-carbonitrile], for which the concentration for half-maximal inhibition (IC50) was in the range of 100 to 1000 nM.

In the case of `C[C@@]1(O)CC[C@H]2[C@H](CC[C@@H]3[C@@H]2CC[C@H]2[C@H]3CC[C@@H]2C(=O)Cn2cc(C#N)cn2)C1` [Example 68, 1-(2-((3R,5R,8R,9R,10S,13S,14S,17S)-3-hydroxy-3-methylhexadecahydro-1H-cyclopenta[a]phenanthren-17-yl)-2-oxoethyl)-1H-pyrazole-4-carbonitrile], the IC50 was under 100 nM. Consider `CC(=O)[C@H]1CCC[C@H]2[C@@H]3CC[C@H]4C[C@](C)(O)CC[C@@H]4[C@H]3CC[C@@H]21` [Example 79, 1-((1S,4aS,4bR,6aS,8R,10aS,10bR,12aS)-8-hydroxy-8-methyloctadecahydrochrysen-1-yl)-ethanone], for which the IC50 is 100 to 1000 nM. On to `CC(=O)[C@H]1CC[C@H]2[C@@H]3CC[C@@H]4C[C@](C)(O)CC[C@@H]4[C@H]3CC[C@@H]21` [Example 66], for which the IC50 was under 100 nM.

The same assay, now with this note: Table 6, 3 nM [35S]-TBPS, in the presence of 5 mM GABA, read-out: IC50.
With `CC[C@]12CC[C@H]3[C@@H](CC[C@@H]4C[C@](C)(O)CC[C@@]43C3CC3)[C@@H]1CC[C@@H]2C(=O)Cn1nnc(C)n1` [Example 91, 1-((3R,5R,8S,9S,10R,13S,14S,17S)-10-cyclopropyl-13-ethyl-3-hydroxy-3-methylhexadecahydro-1H-cyclopenta[a]phenanthren-17-yl)-2-(5-methyl-2H-tetrazol-2-yl)ethanone], the concentration for half-maximal inhibition (IC50) was under 100 nM.
